The test system of one assay is MDA-MB-231 cells. The assay can be described thus: Transwell invasion assay, MDA-MB-231. The class given is cell-based. Particulars: MDA-MB-231, 20 μM, 24 hours. As for the experimental part: Reversal of EMT mediated by MC-1-F2 was anticipated to lead to the inhibition of metastatic capability of cancer cells. […] A wound healing assay was carried out to examine the migratory capabilities of cells in closing a “wound” or gap over a period of 24 hours. […] Inhibition of migratory capabilities of cells only measures one aspect of EMT progression. EMT is marked also by increased invasiveness of cancer cells. Therefore, the invasive property of MDA-MB-231 cells treated with MC-1-F2 was examined (FIGS. 6B&C).
Matrigel invasion chambers (Corning) were allowed to come to room temperature and allowed to rehydrate for 2 hours in a cell incubator. Cells were treated 24 hours prior to assay and starved in 2% FBS in DMEM for 2 hours prior to assay. A cell suspension containing 5×10^4 cells/mL was prepared. Chemoattractant (DMEM+10% FBS) was added to the bottom of the wells. Using forceps, the inserts were transferred inside the wells and 0.5 mL of cell suspension was immediately added. The chambers were incubated for 22 hours in a humidified tissue culture incubator. After the 22 hours, the non-invading cells were removed by scrubbing the surface of the membrane. […] The cells were stained with 0.5% crystal violet solution and several images of the wells were then taken and total number of cells counted for analysis.

Assay [1] has as its system DU145 cells. Description: Western blot of EMT, CSC markers and AR in DU145. The assay is classed as cell-based. Particulars: DU145, 20 μM, 48 hours. The text has this: Due to our interest in CRPC the cell lines DU145 and PC3 were chosen due to their chemoresistance to high concentrations of enzalutamide, androgen independence, and relatively high expression of FOXC2 (FIGS. 30A&B). First, the effect of MC-1-F2 on the inhibition of EMT markers was examined (FIGS. 26A-G). […] The variability in E-cadherin expression can be due to a different mode of action the ligand MC-1-F2 is having on prostate cancer cells, possibly a time dependent effect of the ligand.
After confirmation of the ligand's ability to block EMT, the ligand's ability to decrease cancer stem cell (CSC) characteristics was determined. CRPC is plagued by a higher ratio of CSC to normal prostate cells, leading to the acquired characteristics of higher proliferative and self-renewal capabilities (Yun et al., 2016). CSC markers, Nanog, C-myc and KLF4, were examined.
50 μg of total protein per sample was incubated with 4× loading buffer at 100° C. for 5 min. Protein samples were then loaded into a polyacrylamide gel and subjected to SDS-PAGE. Resolved proteins were then transferred by a wet transfer method to a PVDF membrane at 100 V for 1 hour using a BioRad Mini Trans-Blot Electrophoresis Transfer Cell. Upon the completion of wet transfer, the membrane was then blocked with 5% (w/v) fat-free milk in 1× Tris-buffered saline/0.1% (v/v) Tween-20 (TBS-T) for at least 1 hour. Then incubated with the respective primary antibodies diluted in 5% BSA in 1×TBST at 4° C. overnight. The following day exposed to 1:1000 dilution of anti-mouse […] secondary antibodies in 5% (w/v) fat-free milk in 1×TBS-T for 1 hour at room temperature. The probed proteins were then detected for chemiluminescent signal using SuperSignal Chemiluminescent Substrate (PIERCE). Pierce antibodies: B-actin, and all other antibodies used are from cell signaling.

Assay [2] has as its system DU145 cells. Description: MTT cell viability assay, DU145. The class given is cell-based. To be noted: Homo sapiens, DU-145, 24 hour treatment. As for the experimental part: In order to determine the EC50 of MC-1-F2, an MTT assay on cell viability was performed in both DU145 and PC3.
Cell viability was assessed by MTT (3-(4,5-Dimethylthiazol-2-yl)-2,5-Diphenyltetrazolium Bromide) assay 5,000 cells were seeded on a 96-well cell culture plate and were incubated for at least 24 hours prior to drug treatment. The MTT reagent (Fisher Scientific) was added to the culture medium 3 hours prior to the end of compound incubation. The reaction took place in the 37° C. incubator with 5% CO2 for 3 hours. Cell culture medium was then removed from the wells. Cells with the insoluble purple formazan were lysed with DMSO for 10 mins at room temperature, 200 μL per well. Absorbance was read at 570 nm using a plate reader.

Another assay deals with PC3 cells. Description: Co-treatment MTT assay, PC3. Particulars: constant ratio.

`N=C(N)NCCCCNc1nc(Nc2ccc(Oc3ccccc3)cc2)nc(N2CCN(c3nc(N)nc(Nc4ccc(N5CCOCC5)cc4)n3)CC2)n1` [MC-1-F2]: the “invasive property (transwell invasion)” value in the assay on MDA-MB-231 cells is reported as “decrease in the invasive property”. For the same molecule, in the assay with DU145 cells [1], the AR expression result is reported as “no effect on AR expression”; the “CSC markers Nanog, C-myc and KLF4” value is “significant decreases”; the E-cadherin expression levels entry is on record as “recovery of E-cadherin”; the “EMT markers ZEB1, Vimentin, N-cadherin and Slug” value is recorded as “inhibit various EMT markers”. Also, the “epithelial marker ZO-1 expression” value in the assay with DU145 cells [1] is listed as “recovery of the epithelial marker ZO-1”. Besides, the EC50 in the assay on DU145 cells [2] was determined as 48.1 µM. Moreover, the “combination index with docetaxel (CompuSyn)” value in the assay on PC3 cells is “negative combination index”. Besides, in the assay with PC3 cells (24 hours), the “combination effect with docetaxel” value is on record as “synergistic effects” and the “combination effect with enzalutamide (CompuSyn)” value is given as “only additive effects”.

For the origin of these results see patent US10814010B2, “FOXC2 inhibitor and methods of use thereof” (The Board of Regents of The University of Texas System, priority 2018, dated 2020).
